From patent US20240122180A1, “FUNGICIDAL HALOMETHYL KETONES AND HYDRATES AND THEIR MIXTURES” (FMC Corporation, priority 2020, published 2024)
Marks after values point to notes of the source that are not given here.

Experiments:
Type in all cases: in vivo
[1] = test system: Phakopsora pachyrhizi (the causal agent of Asian soybean rust); experiment: Test A: preventive spray on soybean seedlings, visual disease rating (100 = 100% control; * 50 ppm, ** 10 ppm, *** 250 ppm); settings: 100 = 100% disease control
Summary of the method: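 Preventive test: one day after spraying compound (acetone/water suspension, 250 ppm PEG400), seedlings received rust spore inoculum, 24 h in saturated air then 8 days in growth chamber, both at 22 °C. Disease control scored visually, 100 = complete, 0 = none, relative to untreated controls.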

[2] = test system: Puccinia recondita f. sp. tritici (the causal agent of wheat leaf rust); experiment: Test B: preventive spray on wheat seedlings, disease rating (100 = 100% control; * 50 ppm, ** 10 ppm, *** 250 ppm); settings: 100 = 100% disease control
Summary of the method: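 Preventive test: Puccinia recondita f. sp. tritici spores were inoculated one day after run-off spraying of wheat seedlings with test suspension (acetone/water 50/50, 250 ppm PEG400). After 24 h in saturated air and 6 days in a growth chamber, both at 20° C, control was scored 0–100 versus untreated plants.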

[3] = test system: Uncinula necator (the causal agent of grape powdery mildew); experiment: Test C: preventive spray on grape seedlings, disease rating (100 = 100% control; * 50 ppm, ** 10 ppm, *** 250 ppm); settings: 250 ppm test suspension, 100 = 100% disease control
Summary of the method: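 Grape seedlings sprayed to run-off with compound suspended in acetone/water (50/50) with 250 ppm PEG400, then inoculated next day with Uncinula necator spores. Kept at 20 °C for 12 days before disease rating, where 100 is full control and 0 none, relative to untreated controls.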

[4] = test system: Zymoseptoria tritici (the causal agent of wheat leaf blotch); experiment: Test D: preventive spray on wheat seedlings, disease rating (100 = 100% control; * 50 ppm, ** 10 ppm, *** 250 ppm); settings: 250 ppm test suspension, 100 = 100% disease control
Summary of the method: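 Compounds first dissolved in acetone (3% of final volume), then suspended in 50/50 acetone/water with 250 ppm PEG400 and sprayed to run-off on wheat seedlings; Z. tritici spores inoculated next day. Incubated saturated at 24° C. 48 h, then 20° C. 17 days; disease control rated 0–100 versus controls.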

[5] = test system: Blumeria graminis f. sp. tritici (the causal agent of wheat powdery mildew); experiment: Test E: preventive spray on wheat seedlings, visual disease rating (100 = 100% control; * 50 ppm, ** 10 ppm, *** 250 ppm); settings: 250 ppm test suspension, 100 = 100% disease control
Summary of the method: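 Test suspension (3% acetone, acetone/water 50/50, 250 ppm PEG400) sprayed to run-off on wheat seedlings; inoculated next day with powdery mildew spore dust and kept 8 days at 20 °C. Visual rating, 100 = full and 0 = no control relative to untreated.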

[6] = 50 ppm test suspension, 0 = no control
[7] = 10 ppm test suspension, soybean seedlings
[8] = 10 ppm test suspension, wheat seedlings
[9] = 10 ppm test suspension, 0 = no control
[10] = 250 ppm test suspension, soybean seedlings
[11] = 250 ppm test suspension, wheat seedlings

SMILES	Test A disease control rating [1, 6] [%]	Test B disease control rating [2, 6] [%]	Test C disease control rating ([3]; 0 = no control)	Test D disease control rating ([4]; 0 = no control)	Test E disease control rating ([5]; 0 = no control)	Test C disease control rating ([3]; grape seedlings)	Test D disease control rating ([4]; wheat seedlings)	Test E disease control rating ([5]; wheat seedlings)	other results
CCO/C(=C\Oc1ccc(Cn2cc(C(=O)N(CC)CC)cn2)cc1)C(F)(F)F [compound 438]	73	0	59*** %	26*** %	98*** %				
C#CCOC(=O)c1cnn(Cc2ccc(OCC(O)(O)C(F)(F)F)cc2)c1 [compound 44]						16*** %	98*** %	91*** %	Test A disease control rating [1, 7]: 97%; Test B disease control rating [2, 8]: 85%
N#Cc1ccc(OCC(O)(O)C(F)(F)F)cc1 [compound 142]						19*** %	100*** %	99*** %	Test A disease control rating [1, 7]: 92%; Test B disease control rating [2, 8]: 100%
N#Cc1cnn(Cc2ccc(OCC(O)(O)C(F)(F)F)cc2)c1 [compound 206]						34*** %	93*** %	93*** %	Test A disease control rating ([1]; 50 ppm test suspension, soybean seedlings): 100%; Test B disease control rating ([2]; 50 ppm test suspension, wheat seedlings): 98%
CCOC(=COc1ccc(C2CN(C(C)=O)C2)cc1)C(F)(F)F [compound 373]	81	0	56*** %	99*** %	98*** %				
CCOC(=O)c1cnn(CSc2ccc(O/C=C(\OCC)C(F)(F)F)cc2)c1 [compound 457]									pest or weed control at 10 ppm ([1]; Phakopsora pachyrhizi, 10 ppm test suspension, 0 = no control): 89%; pest or weed control at 10 ppm ([2]; Puccinia recondita, 10 ppm test suspension, 0 = no control): 0%; pest or weed control at 250 ppm ([3]; Erysiphe necator, 0 = no control): 73%; pest or weed control at 250 ppm ([4]; Zymoseptoria tritici, 0 = no control): 7%; pest or weed control at 250 ppm ([5]; Blumeria graminis, 0 = no control): 0%
C=C(C)COC(=O)c1cnn(Cc2ccc(O/C=C(\OCC)C(F)(F)F)cc2)c1 [compound 242]						87*** %	27*** %	69*** %	Test A disease control rating [1, 7]: 100%; Test B disease control rating [2, 8]: 0%
CCOC(=O)c1cnn(Cc2ccc(O/C=C(\OCC)C(F)(F)F)c(Cl)c2)c1 [compound 458]			25*** %	41*** %	94*** %				Test A disease control rating [1, 9]: 100%; Test B disease control rating [2, 9]: 0%
CCO/C(=C\Oc1cccc(Cn2cc(C(=O)NCC(F)F)cn2)c1)C(F)(F)F [compound 394]	0	0	75*** %	24*** %	0*** %				
CCOC(=COc1ccc(OC(=O)c2ccccc2F)cc1)C(F)(F)F [compound 379]	0	0	93*** %	0*** %	21*** %				
CCO/C(=C\Oc1ccc(Cc2ncc(C(=O)NCC(F)F)o2)cc1)C(F)(F)F [compound 255]						93*** %	60*** %	64*** %	Test A disease control rating [1, 7]: 89%; Test B disease control rating [2, 8]: 0%
CCO/C(=C\Oc1cccc(Cn2cc(C(=O)NC(C)C)cn2)c1)C(F)(F)F [compound 415]			9*** %	0*** %	0*** %				Test A disease control rating [1, 9]: 0%; Test B disease control rating [2, 9]: 0%
CCOC(=O)c1cnn(Cc2c(F)c(F)c(O/C=C(\OCC)C(F)(F)F)c(F)c2F)c1 [compound 464]	100	0	73*** %	4*** %	99*** %				
CCOC(=O)c1cnn(Cc2ccc(O/C=C(\OC(C)C)C(F)(F)F)cc2)c1 [compound 57]						64*** %	28%	95*** %	Test A disease control rating [1, 10]: 100%; Test B disease control rating [2, 11]: 0%
CCOC(=O)c1cnn(Cc2ccc(O/C=C(\OCC)C(F)(F)F)c(F)c2F)c1 [compound 430]	100	0	82*** %	3*** %	99*** %				
CCO/C(=C\Oc1cccc(Cn2cc(C(=O)N(CC)CC)cn2)c1)C(F)(F)F [compound 404]	0	0	44*** %	11*** %	0*** %				
CCO/C(=C\Oc1ccc(Cn2cc(C(=O)NC3CCCC3)cn2)cc1)C(F)(F)F [compound 428]			43*** %	2*** %	0*** %				Test A disease control rating [1, 9]: 0%; Test B disease control rating [2, 9]: 0%
CCOC(=O)c1cnn(Cc2c(F)c(F)c(OCC(O)(O)C(F)(F)F)c(F)c2F)c1 [Compound 465]	100	100	73*** %	59*** %	91*** %				
N#Cc1ccc(OCC2(C(F)(F)F)OCCO2)cc1 [compound 98]						31%	77%	0%	Test A disease control rating [1, 10]: 100%; Test B disease control rating [2, 11]: 100%
